In patent US6825200B1, “Substituted dipeptides having nos inhibiting activity” (Fujisawa Pharmaceutical Co., Ltd., priority 1999, dated 2004):

Test system: production of nitric oxide in murine macrophage cell line RAW264.7
Test: Assay for inhibitory activity on the production of nitric oxide (Griess reagent, LPS/INF γ-activated RAW264.7 cells)
Assay type: cell-based
Conditions: Mus musculus; test compound 10^−6 M; RAW264.7 cells activated with LPS (1 μg/ml) and INF γ (3 u/ml) for 18-24 hours; NO2^− by Griess reagent
Protocol: Test 1: Assay for Inhibitory Activity on the Production of Nitric Oxide The murine macrophage cell line RAW264.7 (American Type Culture Collection, No. TIB71) was used in this study. RAW264.7 cells were grown on […] plastic culture flasks at 37° C., 5% in Dulbecco's modified Eagle's medium (DMEM) supplemented with L-glutamine, penicillin, streptomycin and 10% heat-inactivated fetal bovine serum. They were removed from culture flasks by rubber cell scraper and were centrifuged and resuspended in DMEM without phenol red. They were plated in 96-well microtiter plates (10^5 cells per well) and allowed to adhere over 2 hours. The test samples were added and the cells were preincubated for 1 hour. Thereafter the cells were activated with both of lipopolysaccharide (LPS) (1 μg/ml) and interferon γ (INF γ) (3 u/ml) for 18-24 hours. An equal volume of Griess reagent (1% sulfanilamide/0.1% N-naphthylethylenediamine dihydrochloride/2.5% H3PO4) was added and the cells were incubated at room temperature for 10 minutes. The absorbance was read at 570 nm using microplate reader and NO2^- was measured using NaNO2 as a standard.

`O=C(N[C@@H](Cc1ccccn1)C(=O)NCC(=O)N1CCN(c2ccc(Cl)cc2)CC1)c1cc2cc(Cl)ccc2o1` [Compound (a), 5-Chloro-N-[(1S)-2-[[2-[4-(4-chlorophenyl)-1-piperazinyl]-2-oxoethyl]amino]-2-oxo-1-(2-pyridylmethyl)ethyl]-1-benzofuran-2-carboxamide] and `COc1ccc(N2CCN(C(=O)CNC(=O)[C@H](Cc3ccccn3)NC(=O)c3cc4cc(Cl)ccc4o3)CC2)cc1` [Compound (f), 5-Chloro-N-[(1S)-2-[[2-[4-(4-methoxyphenyl)-1-piperazinyl]-2-oxoethyl]amino]-2-oxo-1-(2-pyridylmethyl)ethyl]-1-benzofuran-2-carboxamide] are the same in inhibition at 1 µM: 100% for the first, 100% for the second.

`C[C@H]1CN(c2ccccc2)CCN1C(=O)CNC(=O)[C@H](Cc1ccccn1)NC(=O)/C=C/c1ccc(Cl)cc1` [Compound (b), (2E)-3-(4-Chlorophenyl)-N-[(1S)-2-[[2-((2S)-2-methyl-4-phenyl-1-piperazinyl)-2-oxoethyl]amino]-2-oxo-1-(2-pyridylmethyl)ethyl]-2-propenamide] and `Cc1ccc(N2C[C@@H](C)N(C(=O)CNC(=O)[C@H](Cc3ccccn3)NC(=O)/C=C/c3ccc(Cl)cc3)[C@@H](C)C2)cc1` [Compound (c), (2E)-3-(4-Chlorophenyl)-N-[(1S)-2-[[2-[(2R,6S)-2,6-dimethyl-4-(4-methylphenyl)-1-piperazinyl]-2-oxoethyl]amino]-2-oxo-1-(2-pyridylmethyl)ethyl]-2-propenamide] are the same in inhibition at 1 µM: 100% for the first, 100% for the second.

Going from `O=C(/C=C/c1ccc(Cl)cc1)N[C@@H](Cc1ccccn1)C(=O)NCC(=O)N1CCN(CCC(F)(F)F)CC1` [Compound (d), (2E)-3-(4-Chlorophenyl)-N-[(1S)-2-oxo-2-[[2-oxo-2-[4-(3,3,3-trifluoropropyl)-1-piperazinyl]ethyl]amino]-1-(2-pyridylmethyl)ethyl]-2-propenamide] to `O=C(/C=C/c1ccc(Cl)cc1)N[C@@H](Cc1ccccn1)C(=O)NCC(=O)N1CCN(c2ccc(C(F)(F)F)cc2)CC1` [Compound (e), (2E)-3-(4-Chlorophenyl)-N-[(1S)-2-oxo-2-[[2-oxo-2-[4-(4-trifluoromethylphenyl)-1-piperazinyl]ethyl]amino]-1-(2-pyridylmethyl)ethyl]-2-propenamide], the inhibition at 1 µM falls from 100% to 99%.

Test system: not given
Test: not given
Conditions: not given

Compared with `O=C(N[C@@H](Cc1ccccn1)C(=O)NCC(=O)N1CCN(c2cccs2)CC1)c1cc2cc(Cl)ccc2o1` [Example 18, 5-Chloro-N-[(1S)-2-oxo-2-[[2-oxo-2-[4-(2-thienyl)-1-piperazinyl]ethyl]amino]-1-(2-pyridylmethyl)ethyl]-1-benzofuran-2-carboxamide], `C[C@H](NC(=O)[C@H](Cc1ccccn1)NC(=O)c1cc2cc(Cl)ccc2o1)C(=O)N1CCN(c2ccc(Cl)cc2)CC1` [Example 22, 5-Chloro-N-[(1S)-2-[[(1S)-2-[4-(4-chlorophenyl)-1-piperazinyl]-1-methyl-2-oxoethyl]amino]-2-oxo-1-(2-pyridyl-methyl)ethyl]-1-benzofuran-2-carboxamide] is higher in melting point: 75 to 85 °C for the first, 152 to 155 °C for the second.

Compared with `C[C@H](NC(=O)[C@H](Cc1ccccn1)NC(=O)/C=C/c1ccc(Cl)cc1)C(=O)N1CCN(c2ccc(Cl)cc2)CC1` [Example 23, (2E)-3-(4-Chlorophenyl)-N-[(1S)-2-[[(1S)-2-[4-(4-chlorophenyl)-1-piperazinyl]-1-methyl-2-oxoethyl]amino]-2-oxo-1-(2-pyridylmethyl)ethyl]-2-propenamide], `COC[C@@H]1CN(c2ccccc2)CCN1C(=O)CNC(=O)[C@H](Cc1ccccn1)NC(=O)c1cc2cc(Cl)ccc2o1` [Example 25, 5-Chloro-N-[(1S)-2-[[2-[(2S)-2-(methoxymethyl)-4-phenyl-1-piperazinyl]-2-oxoethyl]amino]-2-oxo-1-(2-pyridylmethyl)ethyl]-1-benzofuran-2-carboxamide] is lower in melting point: 179 to 181 °C for the first, 95 to 100 °C for the second.

`O=C(N[C@@H](Cc1ccccn1)C(=O)NCC(=O)N1CCN(c2ccccc2)C[C@H]1CO)c1cc2cc(Cl)ccc2o1` [Example 26, 5-Chloro-N-[(1S)-2-[[2-[(2S)-2-(hydroxymethyl)-4-phenyl-1-piperazinyl]-2-oxoethyl]amino]-2-oxo-1-(2-pyridylmethyl)ethyl]-1-benzofuran-2-carboxamide] showed a melting point of 115 to 120 °C.
